Patent US20230072683A1, “PYRIDO-PYRIMIDIN DERIVATIVES AND PHARMACEUTICAL COMPOSITION, FOR USE IN PREVENTING OR TREATING PI3 KINASE RELATED DISEASES, COMPRISING SAME AS ACTIVE INGREDIENT” (BORYUNG PHARMACEUTICAL CO., LTD, priority 2019, published 2023)
Read-outs that look alike come from different tables or passages of the source.

Assays:
[1] = biological target: PI3K-δ (PI3K(p1108/p857) (h)) (Homo sapiens, UniProt O00329); experiment: Evaluation of inhibitory activity against PI3K-δ (HTRF kinase assay); type: biochemical; conditions: for inhibition at 0.01 µM: compound concentration 0.01 μM, read-out: EXP_VALUE(% Inhibition) PI3K-δ 0.01 μM; for inhibition at 0.1 µM: read-out: EXP_VALUE(% Inhibition) PI3K-δ 0.1 μM
Protocol: <Experimental Example 1> Evaluation of Inhibitory Activity Properties Against PI3K-δ
The following experiments were performed to verify the inhibitory activity against PI3K-δ with regard to each of the compounds of Examples 1 to 441 according to the present invention.
PI3K(p1108/p857) (h) was incubated in assay buffer comprising 10 μM phosphatidylinositol-4,5-bisphosphate and Mg/ATP (at a concentration as required). The reaction was initiated by the addition of a Mg/ATP mixture, and after incubation for 30 minutes at room temperature, a stop solution comprising EDTA and phosphatidylinositol-3,4,5-triphosphate was added to stop the reaction and carry out biotinylation.
A detection buffer comprising Eu (europium)-labelled anti-GST monoclonal antibody, GST-tagged GRP1 PH domain and streptavidin-allophycocyanin was added. A plate was read in a time-resolved fluorescence mode and a homogeneous time-resolved fluorescence (HTRF) signal was determined according to HTRF=10000×(Em 665 nm/Em 620 nm).

[2] = biological target: DNA-PK(h) (Homo sapiens, UniProt P78527); experiment: Evaluation of inhibitory activity against DNA-PK (HTRF kinase assay, GST-cMyc-p53 substrate); type: biochemical; conditions: for inhibition at 0.01 µM: compound concentration 0.01 μM, read-out: EXP_VALUE(% Inhibition) DNA-PK(h) 0.01 μM; for inhibition at 0.1 µM: read-out: EXP_VALUE(% Inhibition) DNA-PK(h) 0.1 μM
Protocol: <Experimental Example 2> Evaluation of Inhibitory Activity Properties Against DNA-PK
The following experiments were performed to verify the inhibitory activity against DNA-PK with regard to each of the compounds of Examples 1 to 441 according to the present invention.
DNA-PK(h) was subjected to an isothermal treatment in an assay buffer comprising […] GST-cMyc-p53 and Mg/ATP (at a concentration as required). The reaction was initiated by the addition of a Mg/ATP mixture, and after incubation for 30 minutes at room temperature, a stop solution comprising EDTA was added to stop the reaction. A detection buffer comprising d2-labelled anti-GST monoclonal antibody and Europium-labelled anti-phospho Ser15 antibody for phosphorylated p53 was added. A plate was read in a time-resolved fluorescence mode and a homogeneous time-resolved fluorescence (HTRF) signal was determined according to HTRF=10000×(Em 665 nm/Em 620 nm).

Chain of PI3K-δ (PI3K(p1108/p857) (h)) (O00329 whole entry): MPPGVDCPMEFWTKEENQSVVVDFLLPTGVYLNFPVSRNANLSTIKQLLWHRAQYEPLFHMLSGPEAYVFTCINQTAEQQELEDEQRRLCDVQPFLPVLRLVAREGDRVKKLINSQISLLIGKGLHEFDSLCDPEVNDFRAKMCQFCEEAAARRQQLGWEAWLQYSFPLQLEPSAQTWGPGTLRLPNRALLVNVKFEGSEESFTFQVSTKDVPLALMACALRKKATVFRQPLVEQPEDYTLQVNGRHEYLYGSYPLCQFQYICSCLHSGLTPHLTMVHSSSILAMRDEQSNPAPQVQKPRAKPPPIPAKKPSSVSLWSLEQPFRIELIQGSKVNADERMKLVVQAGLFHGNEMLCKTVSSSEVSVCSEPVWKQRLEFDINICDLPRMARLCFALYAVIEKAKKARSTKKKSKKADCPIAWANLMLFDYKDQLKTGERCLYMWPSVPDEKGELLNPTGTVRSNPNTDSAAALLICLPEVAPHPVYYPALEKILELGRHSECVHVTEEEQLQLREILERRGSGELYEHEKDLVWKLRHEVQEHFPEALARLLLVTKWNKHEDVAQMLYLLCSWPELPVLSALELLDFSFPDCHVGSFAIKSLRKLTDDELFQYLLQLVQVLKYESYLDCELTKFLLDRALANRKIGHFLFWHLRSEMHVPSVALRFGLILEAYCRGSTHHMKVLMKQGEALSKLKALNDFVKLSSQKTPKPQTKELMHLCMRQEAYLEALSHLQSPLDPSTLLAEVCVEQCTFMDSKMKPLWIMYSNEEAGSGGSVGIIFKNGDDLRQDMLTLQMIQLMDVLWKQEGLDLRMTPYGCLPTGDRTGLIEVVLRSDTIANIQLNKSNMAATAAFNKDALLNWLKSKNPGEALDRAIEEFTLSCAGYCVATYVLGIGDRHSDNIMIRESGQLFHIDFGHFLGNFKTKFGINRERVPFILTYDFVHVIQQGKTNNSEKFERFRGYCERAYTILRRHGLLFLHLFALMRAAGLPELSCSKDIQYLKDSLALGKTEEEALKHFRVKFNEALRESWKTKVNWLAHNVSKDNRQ
Chain of PI3K-δ (PI3K(p1108/p857) (h)) (P27986 whole entry partner): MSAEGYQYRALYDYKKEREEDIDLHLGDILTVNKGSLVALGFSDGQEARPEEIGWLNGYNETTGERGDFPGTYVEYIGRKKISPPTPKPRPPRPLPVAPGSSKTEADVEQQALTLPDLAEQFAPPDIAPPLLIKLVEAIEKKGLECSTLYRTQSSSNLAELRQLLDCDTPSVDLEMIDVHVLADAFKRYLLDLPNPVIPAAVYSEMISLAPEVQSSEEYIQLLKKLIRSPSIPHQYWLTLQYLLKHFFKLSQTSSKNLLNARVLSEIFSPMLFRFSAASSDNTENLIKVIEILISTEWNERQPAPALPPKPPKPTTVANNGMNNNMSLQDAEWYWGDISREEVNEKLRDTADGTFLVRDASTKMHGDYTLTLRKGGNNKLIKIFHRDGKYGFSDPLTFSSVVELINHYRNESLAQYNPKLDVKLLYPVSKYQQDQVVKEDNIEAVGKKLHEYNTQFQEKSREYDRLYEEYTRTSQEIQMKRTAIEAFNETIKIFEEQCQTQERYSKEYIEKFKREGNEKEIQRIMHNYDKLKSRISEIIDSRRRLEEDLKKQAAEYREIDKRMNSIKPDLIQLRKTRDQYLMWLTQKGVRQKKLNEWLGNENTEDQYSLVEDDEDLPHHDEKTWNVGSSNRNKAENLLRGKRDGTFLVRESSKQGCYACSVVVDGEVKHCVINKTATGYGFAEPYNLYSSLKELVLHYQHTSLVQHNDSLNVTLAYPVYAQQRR

| Structure (SMILES) | inhibition at 0.01 µM [1] [%] | inhibition at 0.01 µM [2] [%] | inhibition at 0.1 µM ([1]; compound concentration 0.1 μM) [%] | inhibition at 0.1 µM ([2]; compound concentration 0.1 μM) [%] | inhibition at 0.1 µM ([1]; compound at 0.1 μM) [%] | inhibition at 0.1 µM ([2]; compound at 0.1 μM) [%] |
| --- | --- | --- | --- | --- | --- | --- |
| C[C@H](Nc1ncnc2[nH]ccc(=O)c12)c1c(Cl)c2cccc(C(=O)NCc3ccccc3)c2c(=O)n1-c1ccccc1 [Example 280, (S)—N-benzyl-4-chloro-1-oxo-3-(1-((5-oxo-5,8-dihydropyrido[2,3-d]pyrimidin-4-yl)amino)ethyl)-2-phenyl-1,2-dihydroisoquinoline-8-carboxamide] | 91 | 15 |  |  |  |  |
| C[C@H](Nc1ncnc2[nH]ccc(=O)c12)c1c(Cl)c2cccc(-c3ccc(-c4ccccc4)nc3)c2c(=O)n1-c1ccccc1 [Example 115, (S)-4-((1-(4-chloro-1-oxo-2-phenyl-8-(6-phenylpyridin-3-yl)-1,2-dihydroisoquinolin-3-yl)ethyl)amino)pyrido[2,3-d]pyrimidin-5(8H)-one] | 78 | 15 | 96 | 72 |  |  |
| C[C@H](Nc1ncnc2[nH]ccc(=O)c12)c1c(Cl)c2cccc(-c3ccc(SC4CC4)cc3)c2c(=O)n1-c1ccccc1 [Example 152, (S)-4-((1-(4-chloro-8-(4-(cyclopropylthio)phenyl)-1-oxo-2-phenyl-1,2-dihydroisoquinolin-3-yl)ethyl)amino)pyrido[2,3-d]pyrimidin-5(8H)-one] | 58 | 36 |  |  |  |  |
| C[C@H](Nc1ncnc2[nH]ccc(=O)c12)c1c(Cl)c2cccc(CN3CCOCC3)c2c(=O)n1-c1ccccc1 [Example 245, (S)-4-((1-(4-chloro-8-(morpholinomethyl)-1-oxo-2-phenyl-1,2-dihydroisoquinolin-3-yl)ethyl)amino)pyrido[2,3-d]pyrimidin-5(8H)-one] | 52 | 43 |  |  |  |  |
| C[C@H](Nc1ncnc2[nH]ccc(=O)c12)c1c(Cl)c2cccc(N3CCc4ccsc4C3)c2c(=O)n1-c1ccccc1 [Example 330, (S)-4-((1-(4-chloro-8-(4,7-dihydrothieno[2,3-c]pyridin-6(5H)-yl)-1-oxo-2-phenyl-1,2-dihydroisoquinolin-3-yl)ethyl)amino)pyrido[2,3-d]pyrimidin-5(8H)-one] | 30 | 10 | 72 | 32 |  |  |
| COc1cc(-c2cccc3c(Cl)c([C@H](C)Nc4ncnc5[nH]ccc(=O)c45)n(-c4ccccc4)c(=O)c23)cc(OC)c1OC [Example 103, (S)-4-((1-(4-chloro-1-oxo-2-phenyl-8-(3,4,5-trimethoxyphenyl)-1,2-dihydroisoquinolin-3-yl)ethyl)amino)pyrido[2,3-d]pyrimidin-5(8H)-one] | 91 | 91 | 103 | 101 |  |  |
| C[C@H](Nc1ncnc2[nH]ccc(=O)c12)c1c(Cl)c2cccc(-c3ccc(-c4ccon4)cc3)c2c(=O)n1-c1ccccc1 [Example 33, (S)-4-((1-(4-chloro-8-(4-(isoxazol-3-yl)phenyl)-1-oxo-2-phenyl-1,2-dihydroisoquinolin-3-yl)ethyl)amino)pyrido[2,3-d]pyrimidin-5(8H)-one] | 92 | 48 |  |  |  |  |
| Cc1cc(C#N)ccc1-c1cccc2c(Cl)c([C@H](C)Nc3ncnc4[nH]ccc(=O)c34)n(-c3ccccc3)c(=O)c12 [Example 67, (S)-4-(4-chloro-1-oxo-3-(1-((5-oxo-5,8-dihydropyrido[2,3-d]pyrimidin-4-yl)amino)ethyl)-2-phenyl-1,2-dihydroisoquinolin-8-yl)-3-methylbenzonitrile] | 82 | 56 | 92 | 86 |  |  |
| CCCC(=O)c1cccc2c(Cl)c([C@H](C)Nc3ncnc4[nH]ccc(=O)c34)n(-c3ccccc3)c(=O)c12 [Example 268, (S)-4-((1-(8-butyryl-4-chloro-1-oxo-2-phenyl-1,2-dihydroisoquinolin-3-yl)ethyl)amino)pyrido[2,3-d]pyrimidin-5(8H)-one] | 76 | 27 |  |  |  |  |
| C[C@H](Nc1ncnc2[nH]ccc(=O)c12)c1c(Cl)c2cccc(-c3ccc(C(F)(F)F)cc3)c2c(=O)n1-c1ccccc1 [Example 68, (S)-4-((1-(4-chloro-1-oxo-2-phenyl-8-(4-(trifluoromethyl)phenyl)-1,2-dihydroisoquinolin-3-yl)ethyl)amino)pyrido[2,3-d]pyrimidin-5(8H)-one] |  | 48 |  | 73 |  |  |

Second part, the compound after the results:

| inhibition at 0.01 µM [1] [%] | inhibition at 0.01 µM [2] [%] | inhibition at 0.1 µM ([1]; compound concentration 0.1 μM) [%] | inhibition at 0.1 µM ([2]; compound concentration 0.1 μM) [%] | inhibition at 0.1 µM ([1]; compound at 0.1 μM) [%] | inhibition at 0.1 µM ([2]; compound at 0.1 μM) [%] | Structure (SMILES) |
| --- | --- | --- | --- | --- | --- | --- |
| 97 | 82 |  |  |  |  | C[C@H](Nc1ncnc2[nH]ccc(=O)c12)c1c(Cl)c2cccc(-c3ccc(S(C)(=O)=O)nc3)c2c(=O)n1-c1ccccc1 [Example 219, (S)-4-((1-(4-chloro-8-(6-(methylsulfonyl)pyridin-3-yl)-1-oxo-2-phenyl-1,2-dihydroisoquinolin-3-yl)ethyl)amino)pyrido[2,3-d]pyrimidin-5(8H)-one] |
| 65 | 49 |  |  |  |  | C[C@H](Nc1ncnc2[nH]ccc(=O)c12)c1c(Cl)c2cccc(N)c2c(=O)n1-c1ccccc1 [Example 294, (S)-4-((1-(8-amino-4-chloro-1-oxo-2-phenyl-1,2-dihydroisoquinolin-3-yl)ethyl)amino)pyrido[2,3-d]pyrimidin-5(8H)-one] |
| 90 | 63 |  |  |  |  | C[C@H](Nc1ncnc2[nH]ccc(=O)c12)c1c(Cl)c2cccc(-c3cnccn3)c2c(=O)n1-c1ccccc1 [Example 198, (S)-4-((1-(4-chloro-1-oxo-2-phenyl-8-(pyrazin-2-yl)-1,2-dihydroisoquinolin-3-yl)ethyl)amino)pyrido[2,3-d]pyrimidin-5(8H)-one] |
| 77 | 72 |  |  |  |  | C[C@H](Nc1ncnc2[nH]ccc(=O)c12)c1c(Cl)c2cccc(-c3cnc(N4CCC4)nc3)c2c(=O)n1-c1ccccc1 [Example 200, (S)-4-((1-(8-(2-(azetidin-1-yl)pyrimidin-5-yl)-4-chloro-1-oxo-2-phenyl-1,2-dihydroisoquinolin-3-yl)ethyl)amino)pyrido[2,3-d]pyrimidin-5(8H)-one] |
| 84 | 19 | 94 | 62 |  |  | C[C@H](Nc1ncnc2[nH]ccc(=O)c12)c1c(Cl)c2cccc(B(O)O)c2c(=O)n1-c1ccccc1 [Example 353, (S)-(4-chloro-1-oxo-3-(1-((5-oxo-5,8-dihydropyrido[2,3-d]pyrimidin-4-yl)amino)ethyl)-2-phenyl-1,2-dihydroisoquinolin-8-yl)boronic acid] |
|  |  |  |  | 26 | 48 | C[C@H](Nc1ncnc2[nH]ccc(=O)c12)c1c(Cl)c2cccc(Sc3nccs3)c2c(=O)n1-c1ccccc1 [Example 417, (S)-4-((1-(4-chloro-1-oxo-2-phenyl-8-(thiazol-2-ylthio)-1,2-dihydroisoquinolin-3-yl)ethyl)amino)pyrido[2,3-d]pyrimidin-5(8H)-one] |
| 61 | 10 | 94 | 65 |  |  | Cc1c(F)cccc1-c1cccc2c(Cl)c([C@H](C)Nc3ncnc4[nH]ccc(=O)c34)n(-c3ccccc3)c(=O)c12 [Example 109, (S)-4-((1-(4-chloro-8-(3-fluoro-2-methylphenyl)-1-oxo-2-phenyl-1,2-dihydroisoquinolin-3-yl)ethyl)amino)pyrido[2,3-d]pyrimidin-5(8H)-one] |
| 105 | 93 |  |  |  |  | COc1cc(-c2cccc3c(Cl)c([C@H](C)Nc4ncnc5[nH]ccc(=O)c45)n(-c4ccccc4)c(=O)c23)ccn1 [Example 150, (S)-4-((1-(4-chloro-8-(2-methoxypyridin-4-yl)-1-oxo-2-phenyl-1,2-dihydroisoquinolin-3-yl)ethyl)amino)pyrido[2,3-d]pyrimidin-5(8H)-one] |
| 73 | 44 |  |  |  |  | CC(C)c1ncncc1-c1cccc2c(Cl)c([C@H](C)Nc3ncnc4[nH]ccc(=O)c34)n(-c3ccccc3)c(=O)c12 [Example 215, (S)-4-((1-(4-chloro-8-(4-isopropylpyrimidin-5-yl)-1-oxo-2-phenyl-1,2-dihydroisoquinolin-3-yl)ethyl)amino)pyrido[2,3-d]pyrimidin-5(8H)-one] |
